From the NIST ThermoML archive (doi:10.1021/je0201976)
± gives the expanded uncertainty stated by the source.

Settings: Liquid
[1] = Visual observation in an unstirred cell

FC(F)OCC(F)(F)C(F)(F)F [difluoromethyl 2,2,3,3,3-pentafluoropropyl ether]
vapor or sublimation pressure (298.42 K): 44.2 ± 1 kPa | vapor or sublimation pressure (322.49 K): 111.5 ± 1.1 kPa | vapor or sublimation pressure (332.63 K): 157.2 ± 1.1 kPa | vapor or sublimation pressure (342.7 K): 216.6 ± 1.2 kPa | vapor or sublimation pressure (352.65 K): 290.7 ± 1.3 kPa | vapor or sublimation pressure (362.73 K): 384.1 ± 1.5 kPa | vapor or sublimation pressure (372.78 K): 498.1 ± 1.8 kPa | vapor or sublimation pressure (382.79 K): 637.5 ± 2.1 kPa | vapor or sublimation pressure (392.82 K): 807.7 ± 2.5 kPa | vapor or sublimation pressure (402.86 K): 1006.3 ± 3.2 kPa | vapor or sublimation pressure (412.9 K): 1244.5 ± 3.9 kPa | vapor or sublimation pressure (422.93 K): 1524.9 ± 4.8 kPa | vapor or sublimation pressure (432.96 K): 1858.4 ± 5.8 kPa | vapor or sublimation pressure (442.98 K): 2203.3 ± 6.9 kPa | vapor or sublimation pressure (454.99 K): 2769 ± 8.7 kPa | vapor or sublimation pressure (455.27 K): 2796.4 ± 8.8 kPa | Critical density: 576 ± 2 kg/m3 | Critical pressure (Direct measurement): 2773 ± 9 kPa | Critical temperature [1]: 455.1 ± 0.1 K

FC(C(F)(F)F)C(F)(F)OCC(F)(F)C(F)(F)F (stereo not given)
vapor or sublimation pressure (312.48 K): 14.7 ± 1 kPa | vapor or sublimation pressure (342.64 K): 54.8 ± 1 kPa | vapor or sublimation pressure (352.72 K): 79.1 ± 1 kPa | vapor or sublimation pressure (362.78 K): 113.1 ± 1.1 kPa | vapor or sublimation pressure (372.77 K): 157 ± 1.1 kPa | vapor or sublimation pressure (382.71 K): 211.7 ± 1.2 kPa | vapor or sublimation pressure (402.89 K): 360.6 ± 1.4 kPa | vapor or sublimation pressure (412.9 K): 460.7 ± 1.7 kPa | vapor or sublimation pressure (422.79 K): 575.4 ± 1.9 kPa | vapor or sublimation pressure (432.96 K): 717.1 ± 2.3 kPa | vapor or sublimation pressure (443 K): 881.9 ± 2.8 kPa | vapor or sublimation pressure (453 K): 1067.4 ± 3.3 kPa | vapor or sublimation pressure (461.47 K): 1255.3 ± 3.9 kPa | vapor or sublimation pressure (473.07 K): 1548.7 ± 4.8 kPa | vapor or sublimation pressure (483.09 K): 1842.8 ± 5.7 kPa | vapor or sublimation pressure (486.67 K): 1954.3 ± 6.1 kPa | Critical density: 567 ± 2 kg/m3 | Critical pressure (Direct measurement): 1950 ± 7 kPa | Critical temperature [1]: 486.48 ± 0.07 K

COCC(F)(F)C(F)(F)C(F)(F)C(F)F [1,1,2,2,3,3,4,4-octafluoro-5-methoxypentane]
vapor or sublimation pressure (301.49 K): 2.3 ± 1.1 kPa | vapor or sublimation pressure (312.42 K): 4 ± 1.1 kPa | vapor or sublimation pressure (322.54 K): 6.9 ± 1.1 kPa | vapor or sublimation pressure (332.62 K): 11.2 ± 1.2 kPa | vapor or sublimation pressure (342.67 K): 18.1 ± 1.4 kPa | vapor or sublimation pressure (352.72 K): 29.1 ± 1.8 kPa | vapor or sublimation pressure (362.75 K): 48 ± 2.6 kPa | vapor or sublimation pressure (372.79 K): 74.3 ± 3.9 kPa | vapor or sublimation pressure (382.81 K): 106.8 ± 5.5 kPa | vapor or sublimation pressure (392.83 K): 147.1 ± 7.5 kPa | vapor or sublimation pressure (402.86 K): 193.8 ± 9.9 kPa | vapor or sublimation pressure (412.89 K): 250.4 ± 13 kPa | vapor or sublimation pressure (422.92 K): 320.1 ± 16 kPa | vapor or sublimation pressure (432.94 K): 395.7 ± 20 kPa | vapor or sublimation pressure (442.97 K): 482.8 ± 24 kPa | vapor or sublimation pressure (452.99 K): 585.8 ± 29 kPa | vapor or sublimation pressure (463 K): 710.7 ± 36 kPa | vapor or sublimation pressure (473.04 K): 849.5 ± 42 kPa | vapor or sublimation pressure (483.07 K): 1006.9 ± 50 kPa | vapor or sublimation pressure (492.89 K): 1184.9 ± 59 kPa | vapor or sublimation pressure (502.72 K): 1385.9 ± 69 kPa | vapor or sublimation pressure (512.54 K): 1615.9 ± 80 kPa | vapor or sublimation pressure (522.34 K): 1873.5 ± 93 kPa | vapor or sublimation pressure (532.17 K): 2168.7 ± 110 kPa | vapor or sublimation pressure (541.94 K): 2471.9 ± 120 kPa | vapor or sublimation pressure (545.63 K): 2602.5 ± 130 kPa | Critical pressure: 2392 ± 19 kPa | Critical temperature: 546.1 ± 0.31 K

CC(F)(F)Cl [1-chloro-1,1-difluoroethane]
Critical density: 442 ± 2 kg/m3 | Critical pressure (Direct measurement): 4054 ± 7 kPa | Critical temperature [1]: 410.3 ± 0.07 K

FCC(F)(F)F [1,1,1,2-tetrafluoroethane]
Critical density: 508 ± 2 kg/m3 | Critical pressure (Direct measurement): 4051 ± 5 kPa | Critical temperature [1]: 374.13 ± 0.07 K

FC(F)C(F)(F)COC(F)(F)C(F)F [1,1,2,2-tetrafluoro-3-(1,1,2,2-tetrafluoroethoxy)propane]
vapor or sublimation pressure (322.65 K): 20.9 ± 1 kPa | vapor or sublimation pressure (332.65 K): 31.6 ± 1 kPa | vapor or sublimation pressure (342.71 K): 46.8 ± 1 kPa | vapor or sublimation pressure (352.73 K): 67.9 ± 1 kPa | vapor or sublimation pressure (362.77 K): 95.4 ± 1 kPa | vapor or sublimation pressure (372.77 K): 131.3 ± 1.1 kPa | vapor or sublimation pressure (382.81 K): 177.3 ± 1.1 kPa | vapor or sublimation pressure (402.88 K): 308.1 ± 1.3 kPa | vapor or sublimation pressure (412.91 K): 395.4 ± 1.5 kPa | vapor or sublimation pressure (422.94 K): 500.2 ± 1.8 kPa | vapor or sublimation pressure (432.96 K): 628.3 ± 2.1 kPa | vapor or sublimation pressure (442.99 K): 773.9 ± 2.4 kPa | vapor or sublimation pressure (453.01 K): 946.9 ± 3 kPa | vapor or sublimation pressure (463.24 K): 1151.4 ± 3.6 kPa | vapor or sublimation pressure (473.06 K): 1378.5 ± 4.3 kPa | vapor or sublimation pressure (481.12 K): 1591 ± 5 kPa | vapor or sublimation pressure (491.9 K): 1907.6 ± 6 kPa | vapor or sublimation pressure (501.73 K): 2245.2 ± 7 kPa | vapor or sublimation pressure (509.65 K): 2552.5 ± 8 kPa | Critical density: 530 ± 2 kg/m3 | Critical pressure (Direct measurement): 2581 ± 5 kPa | Critical temperature [1]: 510.07 ± 0.08 K

CCOC(F)(F)C(F)(F)C(F)(F)C(F)(F)F [1-ethoxy-1,1,2,2,3,3,4,4,4-nonafluorobutane]
vapor or sublimation pressure (309.21 K): 22.5 ± 1 kPa | vapor or sublimation pressure (332.68 K): 57 ± 1 kPa | vapor or sublimation pressure (342.71 K): 80.7 ± 1 kPa | vapor or sublimation pressure (347.73 K): 95.4 ± 1 kPa | vapor or sublimation pressure (382.82 K): 271.9 ± 1.3 kPa | vapor or sublimation pressure (392.84 K): 349.2 ± 1.4 kPa | vapor or sublimation pressure (402.87 K): 443.3 ± 1.6 kPa | vapor or sublimation pressure (412.66 K): 553.4 ± 1.9 kPa | vapor or sublimation pressure (422.65 K): 684.8 ± 2.2 kPa | vapor or sublimation pressure (432.89 K): 835.3 ± 2.6 kPa | vapor or sublimation pressure (443.2 K): 1011.6 ± 3.2 kPa | vapor or sublimation pressure (453.14 K): 1212.9 ± 3.8 kPa | vapor or sublimation pressure (473.46 K): 1720.7 ± 5.4 kPa | Critical density: 518 ± 2 kg/m3 | Critical pressure (Direct measurement): 1976 ± 5 kPa | Critical temperature [1]: 482.02 ± 0.11 K

COC(F)(F)C(F)(F)C(F)F [1,1,2,2,3,3-hexafluoro-1-methoxypropane]
vapor or sublimation pressure (301.9 K): 22.4 ± 1.2 kPa | vapor or sublimation pressure (312.59 K): 35 ± 1.3 kPa | vapor or sublimation pressure (322.63 K): 52.9 ± 1.6 kPa | vapor or sublimation pressure (332.69 K): 77 ± 2.1 kPa | vapor or sublimation pressure (337.67 K): 92.1 ± 2.4 kPa | vapor or sublimation pressure (342.69 K): 109.2 ± 2.8 kPa | vapor or sublimation pressure (352.73 K): 151.1 ± 3.9 kPa | vapor or sublimation pressure (362.74 K): 204.9 ± 5.2 kPa | vapor or sublimation pressure (372.78 K): 273.4 ± 6.9 kPa | vapor or sublimation pressure (382.81 K): 357.4 ± 9 kPa | vapor or sublimation pressure (392.84 K): 458.8 ± 12 kPa | vapor or sublimation pressure (402.87 K): 581.1 ± 14 kPa | vapor or sublimation pressure (412.87 K): 726.2 ± 18 kPa | vapor or sublimation pressure (422.91 K): 898.8 ± 22 kPa | vapor or sublimation pressure (432.94 K): 1100.7 ± 27 kPa | vapor or sublimation pressure (442.97 K): 1333.7 ± 33 kPa | vapor or sublimation pressure (452.99 K): 1605.1 ± 40 kPa | vapor or sublimation pressure (463.02 K): 1921.8 ± 48 kPa | vapor or sublimation pressure (473.04 K): 2276.4 ± 57 kPa | vapor or sublimation pressure (480.12 K): 2562.9 ± 64 kPa | Critical pressure: 3032 ± 100 kPa | Critical temperature: 486.98 ± 0.31 K

FC(F)OCC(F)(F)F [1,1,1-trifluoro-2-(difluoromethoxy)ethane]
vapor or sublimation pressure (294.35 K): 72.3 ± 1 kPa | vapor or sublimation pressure (298.14 K): 84.3 ± 1 kPa | vapor or sublimation pressure (300.2 K): 91.5 ± 1 kPa | vapor or sublimation pressure (303.14 K): 102.8 ± 1 kPa | vapor or sublimation pressure (313.12 K): 148.1 ± 1.1 kPa | vapor or sublimation pressure (323.16 K): 207.8 ± 1.2 kPa | vapor or sublimation pressure (333.19 K): 284.6 ± 1.3 kPa | vapor or sublimation pressure (343.23 K): 381.2 ± 1.5 kPa | vapor or sublimation pressure (353.26 K): 500.9 ± 1.8 kPa | vapor or sublimation pressure (363.3 K): 646.8 ± 2.1 kPa | vapor or sublimation pressure (373.34 K): 823 ± 2.6 kPa | vapor or sublimation pressure (383.37 K): 1031.9 ± 3.2 kPa | vapor or sublimation pressure (393.42 K): 1282.6 ± 4 kPa | vapor or sublimation pressure (403.45 K): 1575.8 ± 4.9 kPa | vapor or sublimation pressure (413.47 K): 1919.5 ± 6 kPa | vapor or sublimation pressure (423.52 K): 2334.2 ± 7.3 kPa | vapor or sublimation pressure (433.56 K): 2798.5 ± 8.7 kPa | vapor or sublimation pressure (443.56 K): 3339.2 ± 10 kPa | Critical pressure: 3457 ± 19 kPa | Critical temperature: 444.88 ± 0.31 K

COCC(F)(F)C(F)F [1,1,2,2-tetrafluoro-3-methoxypropane]
vapor or sublimation pressure (342.68 K): 84.8 ± 1 kPa | vapor or sublimation pressure (347.65 K): 101.2 ± 1.1 kPa | vapor or sublimation pressure (352.72 K): 120.5 ± 1.1 kPa | vapor or sublimation pressure (362.75 K): 166.1 ± 1.1 kPa | vapor or sublimation pressure (372.76 K): 222.7 ± 1.2 kPa | vapor or sublimation pressure (382.79 K): 293.4 ± 1.3 kPa | vapor or sublimation pressure (392.8 K): 379.9 ± 1.5 kPa | vapor or sublimation pressure (402.8 K): 484.3 ± 1.8 kPa | vapor or sublimation pressure (412.88 K): 610.7 ± 2.1 kPa | vapor or sublimation pressure (422.91 K): 758.8 ± 2.5 kPa | vapor or sublimation pressure (432.93 K): 934.8 ± 3 kPa | vapor or sublimation pressure (442.97 K): 1138.1 ± 3.7 kPa | vapor or sublimation pressure (452.99 K): 1373.5 ± 4.5 kPa | vapor or sublimation pressure (463.01 K): 1642.8 ± 5.3 kPa | vapor or sublimation pressure (473.02 K): 1952 ± 6.3 kPa | vapor or sublimation pressure (480.13 K): 2197.3 ± 7.1 kPa | vapor or sublimation pressure (489.95 K): 2573.3 ± 8.3 kPa | vapor or sublimation pressure (499.77 K): 3005.9 ± 9.7 kPa | vapor or sublimation pressure (505.06 K): 3262.8 ± 11 kPa | vapor or sublimation pressure (505.35 K): 3278.9 ± 11 kPa | Critical density: 453 ± 2 kg/m3 | Critical pressure (Direct measurement): 3279 ± 6 kPa | Critical temperature [1]: 505.35 ± 0.13 K
